Measured values published in patent publication US20110312513A1, “BIOMARKERS FOR PREDICTING SUSTAINED RESPONSE TO HCV TREATMENT” (ROCHE MOLECULAR SYSTEMS, INC., priority 2009, published 2011).

Legend:
HCV = conditions: monotherapy; cited from earlier work
[1] = Phase II clinical trial of RO4588161: premature withdrawal for safety reasons; assay type: in vivo, human; conditions: among the 104 evaluable patients
From the text: A screening period (time from the first screening assessment to the first administration of test drug) of 35 days preceded the treatment portion of the trial (FIG. 1). The HCV genotype and HCV RNA titer of each patient was confirmed during the screening period and only treatment-naïve patients with HCV genotype-1 and HCV RNA titer ≧50,000 IU/mL were eligible for enrollment.
One hundred and seven male and female patients between 18 and 66 years of age were enrolled into the study.

Row | Structure (SMILES) | effect on serum levels of HCV-RNA (HCV) | patients with serum amino transferase levels reduced to normal (HCV) | patients who prematurely withdrew for safety reasons from treatment [1]
1 | NC(=O)c1ncn([C@@H]2O[C@H](CO)[C@@H](O)[C@H]2O)n1 [ribavirin, 1-((2R,3R,4S,5R)-3,4-Dihydroxy-5-hydroxymethyl-tetrahydro-furan-2-yl)-1H-[1,2,4]triazole-3-carboxylic acid amide] | does not lower serum levels of HCV-RNA | 40% | 5 patients
2 | CC(C)C(=O)OC[C@@]1(N=[N+]=[N-])O[C@@H](n2ccc(N)nc2=O)[C@H](OC(=O)C(C)C)[C@@H]1OC(=O)C(C)C [RO4588161, Isobutyric acid (2R,3S,4R,5R)-5-(4-amino-2-oxo-2H-pyrimidin-1-yl)-2-azido-3,4-bis-isobutyryloxy-tetrahydro-furan-2-ylmethyl ester] | – | – | 43 patients
